# Experimental data taken from ChEMBL document CHEMBL4376892, “Identification of Parthenolide Dimers as Activators of Pyruvate Kinase M2 in Xenografts of Glioblastoma Multiforme in Vivo” (J Med Chem, 2020).
# How the values were obtained:
# C6 = assay: Antiproliferative activity against rat C6 cells assessed as reduction in cell viability after 72 hrs by MTT assay; type: functional, cell-based; settings: C6, 72 h
# U-251 = assay: Antiproliferative activity against human U251 cells assessed as reduction in cell viability after 72 hrs by MTT assay; type: functional, cell-based; settings: U-251, 72 h
# U-87 MG = assay: Antiproliferative activity against human U87 cells assessed as reduction in cell viability after 72 hrs by MTT assay; type: functional, cell-based, U-87MG ATCC
# [1] = Antiproliferative activity against human SHG44 cells assessed as reduction in cell viability after 72 hrs by MTT assay; type: functional, cell-based; settings: SHG-44, 72 h
# U-118-MG = assay: Antiproliferative activity against human U118MG cells assessed as reduction in cell viability after 72 hrs by MTT assay; type: functional, cell-based
# NIH3T3 = assay: Cytotoxicity against mouse 3T3 cells assessed as reduction in cell viability after 72 hrs by MTT assay; type: cell-based; settings: NIH3T3, 72 h
# SF-126 = assay: Antiproliferative activity against human SF126 cells assessed as reduction in cell viability after 72 hrs by MTT assay; type: functional, cell-based; settings: SF-126, 72 h
# Pyruvate kinase PKM [2] = molecular target: T1, Pyruvate kinase PKM (Homo sapiens, UniProt P14618); assay: Activation of recombinant human N-terminal 6His-tagged PKM2 expressed in Escherichia coli BL21 cells at 10 uM after 30 mins by fluorescence based analysis relative to control
# Target sequence in this assay (P14618 2-531 limits assumed): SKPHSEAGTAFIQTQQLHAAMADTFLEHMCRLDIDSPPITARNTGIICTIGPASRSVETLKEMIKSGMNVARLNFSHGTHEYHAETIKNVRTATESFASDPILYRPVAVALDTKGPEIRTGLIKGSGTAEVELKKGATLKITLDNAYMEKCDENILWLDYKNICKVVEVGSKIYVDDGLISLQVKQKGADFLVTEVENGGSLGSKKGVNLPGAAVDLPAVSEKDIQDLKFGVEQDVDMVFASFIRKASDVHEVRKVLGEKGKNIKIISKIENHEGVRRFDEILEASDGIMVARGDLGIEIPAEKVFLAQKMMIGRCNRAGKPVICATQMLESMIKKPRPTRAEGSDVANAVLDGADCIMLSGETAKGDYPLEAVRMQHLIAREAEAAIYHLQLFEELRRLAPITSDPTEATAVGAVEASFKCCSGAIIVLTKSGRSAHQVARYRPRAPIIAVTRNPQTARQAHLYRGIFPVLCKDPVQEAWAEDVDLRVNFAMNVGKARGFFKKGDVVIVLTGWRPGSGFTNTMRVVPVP
# Pyruvate kinase PKM [3] = molecular target: T1, Pyruvate kinase PKM; assay: Activation of recombinant human N-terminal 6His-tagged PKM2 expressed in Escherichia coli BL21 cells after 50 mins by fluorescence based analysis
# Target sequence in this assay (P14618 whole entry): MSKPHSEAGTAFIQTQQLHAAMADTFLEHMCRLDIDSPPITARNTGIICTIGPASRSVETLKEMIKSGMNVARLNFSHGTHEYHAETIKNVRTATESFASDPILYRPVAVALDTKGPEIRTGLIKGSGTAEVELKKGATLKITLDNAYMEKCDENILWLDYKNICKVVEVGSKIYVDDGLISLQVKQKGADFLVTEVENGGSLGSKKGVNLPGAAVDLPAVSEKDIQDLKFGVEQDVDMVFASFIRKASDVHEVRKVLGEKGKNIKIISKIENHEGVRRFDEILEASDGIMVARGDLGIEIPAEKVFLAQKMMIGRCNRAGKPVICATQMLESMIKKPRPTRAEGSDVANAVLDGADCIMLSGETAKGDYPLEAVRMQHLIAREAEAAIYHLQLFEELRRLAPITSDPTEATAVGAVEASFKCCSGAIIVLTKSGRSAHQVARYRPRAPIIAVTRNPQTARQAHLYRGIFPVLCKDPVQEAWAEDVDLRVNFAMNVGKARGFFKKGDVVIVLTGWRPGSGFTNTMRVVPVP
structure (smiles),measurement,setting,value
C=C1C(=O)O[C@@H]2C3O[C@]3(C)CC/C=C(\C)CC[C@@H]12 (stereo not given in full),IC50,C6,5.45 µM
same,IC50,U-251,12.6 µM
same,IC50,U-87 MG,4.38 µM
same,IC50,[1],9.52 µM
same,IC50,U-118-MG,5.94 µM
same,IC50,NIH3T3,7.14 µM
same,IC50,SF-126,17.1 µM
C=C1C(=O)O[C@H]2[C@H]1CC/C(C(=O)OCCOCCOCCOCCOCCOCCOC(=O)/C1=C/CC[C@@]3(C)O[C@H]3[C@H]3OC(=O)C(=C)[C@@H]3CC1)=C\CC[C@@]1(C)O[C@@H]21,IC50,C6,> 50 µM
same,IC50,U-251,> 50 µM
same,IC50,U-87 MG,15.1 µM
same,IC50,[1],> 50 µM
same,IC50,U-118-MG,10.6 µM
same,fold change (FC),Pyruvate kinase PKM [2],> 2
same,IC50,NIH3T3,> 50 µM
same,IC50,SF-126,> 50 µM
C=C1C(=O)O[C@H]2[C@H]1CC/C(C(=O)OCCOCCOCCOCCOCCOC(=O)/C1=C/CC[C@@]3(C)O[C@H]3[C@H]3OC(=O)C(=C)[C@@H]3CC1)=C\CC[C@@]1(C)O[C@@H]21,IC50,C6,4.82 µM
same,IC50,U-251,14.1 µM
same,IC50,U-87 MG,10.6 µM
same,IC50,[1],18.5 µM
same,IC50,U-118-MG,7.5 µM
same,fold change (FC),Pyruvate kinase PKM [2],> 2
same,IC50,NIH3T3,18.8 µM
same,IC50,SF-126,21 µM
C=C1C(=O)O[C@H]2[C@H]1CC/C(C(=O)OCCOCCOCCOCCOCCOCCOCCOCCOCCOCCOCCOCCOCCOCCOCCOCCOCCOCCOCCOCCOC(=O)/C1=C/CC[C@@]3(C)O[C@H]3[C@H]3OC(=O)C(=C)[C@@H]3CC1)=C\CC[C@@]1(C)O[C@@H]21,IC50,C6,> 50 µM
same,IC50,U-251,> 50 µM
same,IC50,U-87 MG,> 50 µM
same,IC50,[1],> 50 µM
same,IC50,U-118-MG,> 50 µM
same,fold change (FC),Pyruvate kinase PKM [2],> 2
same,IC50,NIH3T3,> 50 µM
same,IC50,SF-126,> 50 µM
Cn1c2cc([S+](C)[O-])sc2c2cnn(Cc3cccc(N)c3)c(=O)c21 (stereo not given),IC50,C6,81.8 µM
same,IC50,U-251,65.4 µM
same,IC50,U-87 MG,86.3 µM
same,IC50,[1],49 µM
same,IC50,U-118-MG,85 µM
same,IC50,NIH3T3,56.6 µM
same,IC50,SF-126,89 µM
C=C1C(=O)O[C@H]2[C@H]1CC/C(C(=O)OCCOCCOCCOC(=O)/C1=C/CC[C@@]3(C)O[C@H]3[C@H]3OC(=O)C(=C)[C@@H]3CC1)=C\CC[C@@]1(C)O[C@@H]21,IC50,C6,1.59 µM
same,IC50,U-251,9.59 µM
same,IC50,U-87 MG,3.09 µM
same,IC50,[1],10.5 µM
same,IC50,U-118-MG,2.87 µM
same,AC50,Pyruvate kinase PKM [3],0.052 µM
same,fold change (FC),Pyruvate kinase PKM [2],> 2
same,IC50,NIH3T3,7.86 µM
same,IC50,SF-126,10.2 µM
C=C1C(=O)O[C@H]2[C@H]1CC/C(C(=O)OCCOCCOCCOCCOC(=O)/C1=C/CC[C@@]3(C)O[C@H]3[C@H]3OC(=O)C(=C)[C@@H]3CC1)=C\CC[C@@]1(C)O[C@@H]21,IC50,C6,4.26 µM
same,IC50,U-251,16.6 µM
same,IC50,U-87 MG,9.13 µM
same,IC50,[1],16.3 µM
same,IC50,U-118-MG,7.97 µM
same,fold change (FC),Pyruvate kinase PKM [2],> 2
same,IC50,NIH3T3,16.1 µM
same,IC50,SF-126,20.1 µM
